Laboratory results: article PMC3165067 (Journal of medicinal chemistry, 2011)

How the values were obtained:
[1] = molecular target: T1, Antithrombin inhibition of factor Xa (Homo sapiens, UniProt P01008); assay: Kinetics of antithrombin inhibition of factor Xa in presence of activators; type: biochemical; settings: for kACT (second-order rate constant of fXa inhibition by AT–activator complex): pH 6.0, 25 mM NaCl, 25 °C, error ±1 S.E.
[2] = molecular target: T1, Antithrombin inhibition of factor Xa; settings: ref [32], cited from earlier work

T1 sequence (P01008 33-464): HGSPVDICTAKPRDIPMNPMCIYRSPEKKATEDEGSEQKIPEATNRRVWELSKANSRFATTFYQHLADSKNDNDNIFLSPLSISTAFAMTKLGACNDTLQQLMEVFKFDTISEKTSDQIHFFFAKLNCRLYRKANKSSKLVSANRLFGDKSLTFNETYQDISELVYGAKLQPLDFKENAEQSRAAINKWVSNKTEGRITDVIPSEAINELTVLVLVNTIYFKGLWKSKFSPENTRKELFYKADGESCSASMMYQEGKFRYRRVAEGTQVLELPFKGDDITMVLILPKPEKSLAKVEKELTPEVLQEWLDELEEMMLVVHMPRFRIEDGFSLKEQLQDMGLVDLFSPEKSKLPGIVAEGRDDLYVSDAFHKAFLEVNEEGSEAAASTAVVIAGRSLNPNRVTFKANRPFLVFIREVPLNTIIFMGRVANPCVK

SMILES | kACT (second-order rate constant of fXa inhibition by AT–activator complex) [1] [M⁻¹ s⁻¹] | further results
O=C([O-])C1Cc2c(OS(=O)(=O)[O-])ccc(OS(=O)(=O)[O-])c2CN1C(=O)Cc1cc(OS(=O)(=O)[O-])ccc1OS(=O)(=O)[O-].[Na+].[Na+].[Na+].[Na+].[Na+] (centres unmarked) [20a, Sodium 2-(2-(2,5-di-O-sulfonato-phenyl)acetyl)-5,8-di-O-sulfonato-1,2,3,4-tetrahydroisoquinoline-3-carboxylate tetrasodium] | 32630 ± 1644 | 
O=C([O-])C1Cc2cc(OS(=O)(=O)[O-])c(OS(=O)(=O)[O-])cc2CN1C(=O)Cc1cc(OS(=O)(=O)[O-])ccc1OS(=O)(=O)[O-].[Na+].[Na+].[Na+].[Na+].[Na+] (centres unmarked) [19a, Sodium 2-(2-(2,5-di-O-sulfonato-phenyl)acetyl)-6,7-di-O-sulfonato-1,2,3,4-tetrahydroisoquinoline-3-carboxylate tetrasodium] | 19740 ± 1290 | 
O=C([O-])C1Cc2c(OS(=O)(=O)[O-])ccc(OS(=O)(=O)[O-])c2CN1C(=O)CCc1cc(OS(=O)(=O)[O-])ccc1OS(=O)(=O)[O-].[Na+].[Na+].[Na+].[Na+].[Na+] (centres unmarked) [20b, Sodium 2-(3-(2,5-di-O-sulfonato-phenyl)propanoyl)-5,8-di-O-sulfonato-1,2,3,4-tetrahydroisoquinoline-3-carboxylate tetrasodium] | 11800 ± 789 | 
O=S(=O)([O-])Oc1cc2c(c(OS(=O)(=O)[O-])c1)C[C@@H](OS(=O)(=O)[O-])[C@@H](c1ccc(OS(=O)(=O)[O-])c(OS(=O)(=O)[O-])c1)O2.[Na+].[Na+].[Na+].[Na+].[Na+] [ECS] |  | kUNCAT ([2]; 20 mM sodium phosphate buffer, pH 6.0, 0.1 mM EDTA, 0.1% PEG8000): ~120 M⁻¹ s⁻¹; kACT ([2]; pH 6.0, no added NaCl): 909 ± 40 M⁻¹ s⁻¹
O=C([O-])C1Cc2cc(OS(=O)(=O)[O-])c(OS(=O)(=O)[O-])cc2CN1C(=O)CCc1cc(OS(=O)(=O)[O-])ccc1OS(=O)(=O)[O-].[Na+].[Na+].[Na+].[Na+].[Na+] (centres unmarked) [19b, Sodium 2-(3-(2,5-di-O-sulfonato-phenyl)propanoyl)-6,7-di-O-sulfonato-1,2,3,4-tetrahydroisoquinoline-3-carboxylate tetrasodium] | 8051 ± 751 | 
O=C([O-])C1Cc2cc(OS(=O)(=O)[O-])c(OS(=O)(=O)[O-])cc2CN1C(=O)CCCc1cc(OS(=O)(=O)[O-])ccc1OS(=O)(=O)[O-].[Na+].[Na+].[Na+].[Na+].[Na+] (centres unmarked) [19c, Sodium 2-(4-(2,5-di-O-sulfonato-phenyl)butanoyl)-6,7-di-O-sulfonato-1,2,3,4-tetrahydroisoquinoline-3-carboxylate tetrasodium] | 9640 ± 748 | 
O=C(Cc1cc(OS(=O)(=O)[O-])ccc1OS(=O)(=O)[O-])N1CCc2cc(OS(=O)(=O)[O-])c(OS(=O)(=O)[O-])cc2C1.[Na+].[Na+].[Na+].[Na+] [compound 7, 1-(6,7-di-O-sulfonato-3,4-dihydroisoquinolin-2(1H)-yl)-2-(2,5-di-O-sulfonato-phenyl) ethanone tetrasodium] | 4582 ± 597 | 
O=C([O-])C1Cc2c(OS(=O)(=O)[O-])ccc(OS(=O)(=O)[O-])c2CN1C(=O)CCCc1cc(OS(=O)(=O)[O-])ccc1OS(=O)(=O)[O-].[Na+].[Na+].[Na+].[Na+].[Na+] (centres unmarked) [20c, Sodium 2-(4-(2,5-di-O-sulfonato-phenyl)butanoyl)-5,8-di-O-sulfonato-1,2,3,4-tetrahydro isoquinoline-3-carboxylate tetrasodium] | 46330 ± 2830 | AT activation, fold less than that achieved with DEFGH ([1]; 79-fold versus 300-fold for DEFGH): 3.8 fold
O=C(CCCc1cc(OS(=O)(=O)[O-])ccc1OS(=O)(=O)[O-])N1CCc2c(ccc(OS(=O)(=O)[O-])c2OS(=O)(=O)[O-])C1.[Na+].[Na+].[Na+].[Na+] [compound 8, 1-(5,6-di-O-sulfonato-3,4-dihydroisoquinolin-2(1H)-yl)-4-(2,5-di-O-sulfonato-phenyl)butan-1-one tetrasodium] | 3337 ± 265 | 
